US20120004235A1, “METHODS TO TREAT CANCER” (Rutgers, The State University of New Jersey, priority 2009, published 2012)

Tests used:
[1] = system: Human HCT-116 Colon Tumor Xenograft Model; assay: Test D xenograft, Compound 2 and metabolites; conditions: qod × 3 for 2 cycles
[2] = system: human HCT-116 colon ca, HT-29 colon ca and NCI-H460 NSCLC cells; assay: 72 hour exposure concentration response in tumor cells (Example 22); assay type: cell-based; conditions: range over HCT-116, HT-29 and NCI-H460 cells and the three compounds
Protocol: The in vitro and in vivo activity of compound 2 and two of its metabolites (compound 5 and compound 6) were explored and compared with the activity of camptothecin Top1 inhibitors. […] In human HCT-116 colon ca, HT-29 colon ca and NCI-H460 NSCLC cells the concentration response for compound 2, compound 5 and compound 6 were the same. […] Compound 2 was administered intravenously on a QODx3 schedule for 2 cycles.

CNCCn1c(=O)c2cc(O)c(OC)cc2c2cnc3cc4c(cc3c21)OCO4 [Compound 5]
Increase in Life Span (ILS) ([1]; 4 mg/kg/day IV): 1.8x | Tumor Growth Delay T-C ([1]; 4 mg/kg/day IV): 25 days | Tumor Growth Inhibition T/C (tumor volume) ([1]; 4 mg/kg/day IV): 27.3% | Increase in Life Span (ILS) ([1]; 6 mg/kg/day IV): 1.9x | Tumor Growth Delay T-C ([1]; 6 mg/kg/day IV): 28 days | Tumor Growth Inhibition T/C (tumor volume) ([1]; 6 mg/kg/day IV): 23.4% | Increase in Life Span (ILS) ([1]; 8 mg/kg/day IV): 2.0x | Tumor Growth Delay T-C ([1]; 8 mg/kg/day IV): 32 days | Tumor Growth Inhibition T/C (tumor volume) ([1]; 8 mg/kg/day IV): 27.2% | IC50 ([2]; read-out: IC50 concentrations): 0.5 to 0.65 nM | IC90 ([2]; read-out: IC90 concentrations): 1.8 to 2 nM
